Experimental data reported in patent US20240116985A1, “STAPLED PEPTIDES AND METHODS THEREOF” (priority 2020, published 2024).
“And” between values parts separate entries of the source, which are not always exact repeats. Identical values can stand only once. Like-named read-outs stand apart in the source and are kept apart here. Blank lines part the entries; values can stand above or below the compound they belong to.

Legend:
[1] = molecular target: T1, beta-catenin/TCF4 engagement (Homo sapiens, UniProt P35222); experiment: Nano-BRET target engagement assay (B-cat-Halo & TCF4-Luc in HEK293 cells); type: cell-based
T1 construct: expressed in transfected cells; host or cells: HEK293
T1 sequence (P35222 1-781): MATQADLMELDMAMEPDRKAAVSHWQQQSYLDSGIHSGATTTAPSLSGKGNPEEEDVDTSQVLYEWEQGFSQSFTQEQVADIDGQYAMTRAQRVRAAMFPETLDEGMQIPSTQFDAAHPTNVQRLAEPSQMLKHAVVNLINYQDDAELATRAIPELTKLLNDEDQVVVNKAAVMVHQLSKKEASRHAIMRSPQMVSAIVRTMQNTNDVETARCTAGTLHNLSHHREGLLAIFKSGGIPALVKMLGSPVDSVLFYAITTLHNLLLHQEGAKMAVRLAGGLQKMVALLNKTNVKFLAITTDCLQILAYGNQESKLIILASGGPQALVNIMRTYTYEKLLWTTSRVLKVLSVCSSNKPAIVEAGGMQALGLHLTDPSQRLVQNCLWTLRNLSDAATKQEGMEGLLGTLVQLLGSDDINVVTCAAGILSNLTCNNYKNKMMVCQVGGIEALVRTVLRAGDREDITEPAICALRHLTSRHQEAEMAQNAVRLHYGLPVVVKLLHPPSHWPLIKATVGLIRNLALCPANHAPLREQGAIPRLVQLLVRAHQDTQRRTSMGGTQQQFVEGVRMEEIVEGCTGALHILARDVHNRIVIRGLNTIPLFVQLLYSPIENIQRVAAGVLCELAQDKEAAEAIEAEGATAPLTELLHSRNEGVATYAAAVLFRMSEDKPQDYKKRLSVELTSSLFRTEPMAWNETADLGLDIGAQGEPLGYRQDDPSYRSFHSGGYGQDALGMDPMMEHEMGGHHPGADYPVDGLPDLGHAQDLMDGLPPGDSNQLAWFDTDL

[2] = test system: TCF/LEF luciferase Reporter in DLD1 cells; experiment: TCF reporter assay (DLD1 TCF/LEF luciferase reporter, Bright-Glo); type: cell-based; details: for DLD1 TCF c2 BrightGlo % Inhibition: replicates
How it was run: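 DLD1 cells stably carrying a TCF/LEF luciferase reporter were plated at 5000 cells/well in RPMI + 4% FBS and treated overnight with a 1:2 compound dilution series. Bright-Glo luminescence read on day 3; viability by CellTiter-Glo. Absolute IC50 determined.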

[3] = molecular target: T2, full-length beta-Catenin (Uniprot ID P35222) (Homo sapiens, UniProt P35222); experiment: Fluorescence polarization IC50 (beta-catenin / 5FAM-TCF4 10-53 competition); type: binding
T2 construct: 10 nM full-length beta-Catenin (Uniprot ID P35222)
T2 sequence (P35222 1-781): T1 sequence (P35222 1-781)

CHI Log D procedure = type: physicochemical; details: for CHI Log D / logD: pH 7.4; for chromatographic logD: pH 7.4, CHI Log D
[4] = Abs IC50, read-out: DLD1 reporter assay Abs IC50
[5] = first dose = 20 uM (plate map), 20 µM
[6] = read-out: DLD1 4% Abs IC50, DLD1 4%
[7] = third dose = 5 uM (plate map), 5 µM
[8] = absolute IC50, read-out: NanoBRET Abs IC50
[9] = absolute IC50, read-out: DLD1 reporter assay Abs IC50
[10] = read-out: DLD1 4% Abs IC50, DLD1 reporter, 4%, absolute IC50
[11] = fluorescence polarization, read-out: beta-Catenin FP IC50

SMILES: CC(=O)N1CCC[C@]12CC=CCCCC1(CCCC=CCCCOC(=O)N3CC[C@@](C(=O)N[C@@H](Cc4ccsc4)C(=O)N[C@@H](Cc4csc5ccccc45)C(=O)N[C@@H](CCC(N)=O)C(N)=O)(C3)NC(=O)[C@H](CC(N)=O)NC(=O)[C@H](Cc3ccccc3)NC(=O)[C@H](C)NC(=O)[C@H](C)NC(=O)[C@H](CN(CC(=O)O)CC(F)(F)F)NC(=O)[C@H](CC(=O)O)NC1=O)NC(=O)[C@H](CC(C)(C)C)NC(=O)[C@H](CC(=O)O)NC2=O (single isomer, unassigned) [I-762, Ac-PL3-Asp-Npg-B5-Asp-TfeGA-Ala-Ala-Phe-Asn-PyrS2-3Thi-BztA-Gln-NH2]
- IC50 ([1]; Abs IC50, read-out: NanoBRET Abs IC50): 10 µM
- IC50 ([1]; Peptide + ST-Protein (SAINT-Protein lipid), read-out: Nano-BRET Abs IC50): 0.7 µM
- IC50 ([1]; Peptide only, read-out: Nano-BRET Abs IC50): 11 µM
- IC50 ([1]; read-out: NanoBRET Abs IC50): 14 µM
- IC50 [2, 4]: 6 µM
- IC50 ([2]; Peptide + ST-Protein (SAINT-Protein lipid), read-out: TCF Reporter Assay Abs IC50): 0.3 µM
- IC50 ([2]; Peptide only, read-out: TCF Reporter Assay Abs IC50): 7 µM
- DLD1 TCF c2 BrightGlo % Inhibition [2, 5]: 75.7% and 81.9% and 78.7%
- IC50 [2, 6]: 7.9 µM
- DLD1 TCF c2 BrightGlo % Inhibition ([2]; 0.625 µM): 14.5% and 18.6% and 9.3%
- DLD1 TCF c2 BrightGlo % Inhibition ([2]; 1.25 µM): 12.9% and 16.9% and 5.5%
- DLD1 TCF c2 BrightGlo % Inhibition ([2]; 2.5 µM): 12.9% and 17.4% and 11.9%
- DLD1 TCF c2 BrightGlo % Inhibition ([2]; 10 µM): 56.8% and 70.2% and 65.6%
- DLD1 TCF c2 BrightGlo % Inhibition [2, 7]: 28.2% and 45.2% and 44.6%
- IC50 ([3]; read-out: FP EC50): 0.006 µM
- IC50 ([3]; read-out: bCat FP IC50): 0.006 µM
- IC50 ([3]; read-out: beta-Catenin FP IC50): 0.005 µM
- CHI Log D (CHI Log D procedure): 2.247
- logD (CHI Log D procedure): 2.2

SMILES: CC(=O)N1CCC[C@]12CC=CCCCC1(CCCC=CCCCOC(=O)N3CC[C@@](C(=O)N[C@@H](Cc4ccsc4)C(=O)N[C@@H](Cc4csc5ccccc45)C(=O)N[C@@H](CCC(N)=O)C(N)=O)(C3)NC(=O)[C@H](CC(N)=O)NC(=O)[C@H](Cc3ccccc3)NC(=O)[C@H](C)NC(=O)[C@H](C)NC(=O)[C@H](CC(=O)O)NC(=O)[C@H](CC(=O)O)NC1=O)NC(=O)[C@H](CC(C)(C)C)NC(=O)[C@H](CC(=O)O)NC2=O (stereo partly drawn) [I-686, Ac-PL3-Asp-Npg-B5-Asp-Asp-Ala-Ala-Phe-Asn-PyrS2-3Thi-BztA-Gln-NH2]
- IC50 [2, 4]: 5.6 µM
- CHI Log D (CHI Log D procedure): 1.997
- logD (CHI Log D procedure): 2.0

SMILES: CC(=O)N1CCC[C@]12CC=CCCCC1(CCCC=CCCCOC(=O)N3CC[C@@](C(=O)N[C@@H](Cc4ccccc4C(F)(F)F)C(=O)N[C@@H](Cc4csc5ccccc45)C(=O)N[C@@H](CCC(N)=O)C(N)=O)(C3)NC(=O)[C@H](CC(N)=O)NC(=O)[C@H](Cc3ccccc3)NC(=O)[C@H](C)NC(=O)[C@H](C)NC(=O)[C@H](CN(CC(=O)O)CC(F)(F)F)NC(=O)[C@H](CC(=O)O)NC1=O)NC(=O)[C@H](CC(C)(C)C)NC(=O)[C@H](CC(=O)O)NC2=O (stereo partly drawn) [I-927, Ac-PL3-Asp-Npg-B5-Asp-TfeGA-Ala-Ala-Phe-Asn-PyrS2-2F3MeF-BztA-Gln-NH2]
- IC50 [1, 8]: 8.2 µM
- IC50 ([1]; read-out: NanoBRET Abs IC50): 8.2 µM
- IC50 [2, 9]: 4.2 µM
- DLD1 TCF c2 BrightGlo % Inhibition [2, 5]: 77.1% and 77.4% and 80.3%
- DLD1 TCF c2 BrightGlo % Inhibition ([2]; 0.625 µM): 3.5% and 8.0% and 14.3%
- DLD1 TCF c2 BrightGlo % Inhibition ([2]; 1.25 µM): 8.7% and 15.1% and 18.6%
- DLD1 TCF c2 BrightGlo % Inhibition ([2]; 2.5 µM): 23.9% and 33.7% and 42.0%
- DLD1 TCF c2 BrightGlo % Inhibition ([2]; 10 µM): 68.0% and 70.2% and 72.9%
- DLD1 TCF c2 BrightGlo % Inhibition [2, 7]: 53.1% and 55.2% and 60.1%
- IC50 ([3]; fluorescence polarization, beta-catenin, read-out: FP EC50): 0.011 µM
- IC50 ([3]; read-out: beta-Catenin FP IC50): 0.011 µM
- CHI Log D (CHI Log D procedure): 2.313

SMILES: CC(=O)N1CCC[C@]12CC=CCCCC1(CCCC=CCCCOC(=O)N3CC[C@@](C(=O)N[C@@H](Cc4ccccc4C(F)(F)F)C(=O)N[C@@H](Cc4csc5ccccc45)C(=O)N[C@@H](C)C(N)=O)(C3)NC(=O)[C@H](CC(C)C)NC(=O)[C@H](Cc3ccccc3)NC(=O)[C@H](C)NC(=O)[C@H](CCC(N)=O)NC(=O)[C@H](Cn3cc(CC4(C(=O)O)CCCCC4)nn3)NC(=O)[C@H](CC(=O)O)NC1=O)NC(=O)[C@H](CC(C)(C)C)NC(=O)[C@H](CC(=O)O)NC2=O (stereo partly drawn) [I-2520, Ac-PL3-Asp-Npg-B5-Asp-[CH2CChCO2H]TriAzDap-Gln-Ala-Phe-Leu-PyrS2-2F3MeF-BztA-Ala-NH2]
- IC50 [1, 8]: 5.9 µM
- IC50 [2, 10]: 5.7 µM
- IC50 [3, 11]: 0.027 µM

SMILES: CC(=O)N1CCC[C@]12CC=CCCCC1(CCCC=CCCCOC(=O)N3CC[C@@](C(=O)N[C@@H](Cc4ccccc4C(F)(F)F)C(=O)N[C@@H](Cc4csc5ccccc45)C(=O)N[C@@H](CO)C(N)=O)(C3)NC(=O)[C@H](CC(C)C)NC(=O)[C@H](Cc3ccccc3)NC(=O)[C@H](C)NC(=O)[C@H](C)NC(=O)[C@H](Cn3cc(CC4(C(=O)O)CCCCC4)nn3)NC(=O)[C@H](CC(=O)O)NC1=O)NC(=O)[C@H](CC(C)(C)C)NC(=O)[C@H](CC(=O)O)NC2=O (stereo partly drawn) [I-2521, Ac-PL3-Asp-Npg-B5-Asp-[CH2CChCO2H]TriAzDap-Ala-Ala-Phe-Leu-PyrS2-2F3MeF-BztA-Ser-NH2]
- IC50 [1, 8]: 5.6 µM
- IC50 [2, 10]: 3 µM
- IC50 [3, 11]: 0.038 µM

Now from value to compound:

- IC50 [1, 8]: 2.8 µM
- IC50 [2, 6]: 1.4 µM
- IC50 ([3]; read-out: beta-Catenin FP IC50): 0.007 µM
- chromatographic logD (CHI Log D procedure): 2.4
SMILES: CC(=O)N1CCC[C@]12CC=CCCCC1(CCCC=CCCCOC(=O)N3CC[C@@](C(=O)N[C@@H](Cc4ccsc4)C(=O)N[C@@H](Cc4csc5ccccc45)C(=O)N[C@@H](CCC(N)=O)C(N)=O)(C3)NC(=O)[C@H](Cc3ccccc3)NC(=O)[C@H](Cc3ccccc3)NC(=O)[C@H](C)NC(=O)[C@H](C)NC(=O)[C@H](Cc3cccc(C(=O)O)c3)NC(=O)[C@H](CC(=O)O)NC1=O)NC(=O)[C@H](CC(C)(C)C)NC(=O)[C@H](CC(=O)O)NC2=O (stereo partly drawn) [I-852, Ac-PL3-Asp-Npg-B5-Asp-3COOHF-Ala-Ala-Phe-Phe-PyrS2-3Thi-BztA-Gln-NH2]

- IC50 [1, 8]: 3.3 µM
- IC50 [2, 9]: 4.5 µM
- IC50 ([3]; read-out: beta-Catenin FP IC50): 0.007 µM
- chromatographic logD (CHI Log D procedure): 2.28
SMILES: CC(=O)N1CCC[C@]12CC=CCCCC1(CCCC=CCCCOC(=O)N3CC[C@@](C(=O)N[C@@H](Cc4ccccc4Br)C(=O)N[C@@H](Cc4csc5ccccc45)C(=O)N[C@@H](CCC(N)=O)C(N)=O)(C3)NC(=O)[C@H](CC(N)=O)NC(=O)[C@H](Cc3ccccc3)NC(=O)[C@H](C)NC(=O)[C@H](C)NC(=O)[C@H](CN(CC(=O)O)CC(F)(F)F)NC(=O)[C@H](CC(=O)O)NC1=O)NC(=O)[C@H](CC(C)(C)C)NC(=O)[C@H](CC(=O)O)NC2=O (stereo partly drawn) [I-924, Ac-PL3-Asp-Npg-B5-Asp-TfeGA-Ala-Ala-Phe-Asn-PyrS2-2BrF-BztA-Gln-NH2]

- IC50 [1, 8]: 2.5 µM
- IC50 [2, 10]: 1.4 µM
- IC50 [3, 11]: 0.01 µM
SMILES: CC(=O)N1CCC[C@]12CC=CCCCC1(CCCC=CCCCOC(=O)N3CC[C@@](C(=O)N[C@@H](Cc4ccsc4)C(=O)N[C@@H](Cc4csc5ccccc45)C(=O)N[C@@H](CCC(=O)N(C)C)C(=O)N[C@@H](C)C(N)=O)(C3)NC(=O)[C@H](CC(C)C)NC(=O)[C@H](Cc3ccccc3)NC(=O)[C@H](C)NC(=O)[C@H](C)NC(=O)[C@H](CN(CC(=O)O)CC(F)(F)F)NC(=O)[C@H](CC(=O)O)NC1=O)NC(=O)[C@H](CC(C)(C)C)NC(=O)[C@H](CC(=O)O)NC2=O (stereo partly drawn) [I-2467, Ac-PL3-Asp-Npg-B5-Asp-TfeGA-Ala-Ala-Phe-Leu-PyrS2-3Thi-BztA-Me2Gln-Ala-NH2]
